Test results published in patent publication US8518450B2, “Nanoparticle carriers for drug administration and process for producing same” (CSIR, priority 2008, dated 2013).

Tests used:
[1] = Drug incorporation / encapsulation efficiency of INH (UV-Vis); assay type: physicochemical; conditions: spray dried PLGA nanoparticles, PLGA:INH 2:1
Description: The amount of the hydrophilic drug Isoniazid that was entrapped in the particle powder after the nanoencapsulation process was measured in triplicate using a spectrophotometric method (UV-Vis, Thermo Spectronic Heliosα). The encapsulation efficiency of INH in nanoparticles was determined as the mass ratio of the entrapped INH to the theoretical amount of INH used in the preparation. For that, 50 mg of precipitated particles were re-suspended in 20 ml of deionised water, centrifuged (10 000 rpm/10 C/5 min) to remove the un-encapsulated drug and the supernatant was subject to UV-Vis Spectrophotometer, read at λ=262 nm for INH assessment. The encapsulated amount of INH was determined by subtracting INH in the supernatant from total initial INH amount.

[2] = INH stability assessment using RP-HPLC; assay type: physicochemical; conditions: formulation with lactose
Description: The stability of INH spray dried powders was assessed by reverse phase-high performance liquid chromatography-analysis (RP-HPLC) using Shimadzu machine supplied with Photodiode Array (PDA) detector.
The following characteristics were applied: a Column Phenomenex [(C18 (5 μm); (250×4.6 mm ID)], a mobile phase of 5% (v/v) acetonitrile with 95% (v/v) buffer NaH2PO4 (pH 6.8), at a flow rate of 1 ml/min and at a temperature of 30° C. The detection was performed using PDA at λ=259 nm, on a total injection volume of 20 μl.

NNC(=O)c1ccncc1 [INH, isoniazid]
encapsulation efficiency of INH [1]: ~60%
stability of INH in spray dried powders (HPLC) [2]: degradation of INH
